Our source for the Ki and Ratio Ki values is ChEMBL document CHEMBL3044919 (Med Chem Res, 2005).

Structures are written as SMILES.

Test [1] can be described thus: Displacement of [3H]DTG from sigma-1 receptor in Cavia porcellus (guinea pig) brain membranes. More on the design: species or system Membrane. In general terms: In a radioligand displacement assay an active substance lowers the binding of a labelled ligand.
The target in test [2] is Sigma non-opioid intracellular receptor 1 (Cavia porcellus, UniProt Q60492). Kind of test: Displacement of [3H](+)pentazocine from sigma-1 receptor in Cavia porcellus (guinea pig) brain membranes. More on the design: species or system Membrane.
Sequence of Sigma non-opioid intracellular receptor 1 (Q60492 whole entry): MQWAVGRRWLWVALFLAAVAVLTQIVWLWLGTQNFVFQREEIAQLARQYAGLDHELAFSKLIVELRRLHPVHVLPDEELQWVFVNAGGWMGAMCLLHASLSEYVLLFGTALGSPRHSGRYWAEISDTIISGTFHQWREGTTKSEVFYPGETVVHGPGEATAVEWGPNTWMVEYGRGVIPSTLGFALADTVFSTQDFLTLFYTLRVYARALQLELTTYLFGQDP
For test [3], the species on record is Cavia porcellus. As to the kind of experiment: Selectivity ratio of Ki for sigma-2 receptor in Cavia porcellus (guinea pig) brain membranes to Ki for sigma-1 receptor in Cavia porcellus (guinea pig) brain membranes.
For test [4], the target named is Histamine H1 receptor (Homo sapiens, UniProt P35367). As to the kind of experiment: Binding affinity to histamine H1 (unknown origin).
Sequence of Histamine H1 receptor (P35367 whole entry): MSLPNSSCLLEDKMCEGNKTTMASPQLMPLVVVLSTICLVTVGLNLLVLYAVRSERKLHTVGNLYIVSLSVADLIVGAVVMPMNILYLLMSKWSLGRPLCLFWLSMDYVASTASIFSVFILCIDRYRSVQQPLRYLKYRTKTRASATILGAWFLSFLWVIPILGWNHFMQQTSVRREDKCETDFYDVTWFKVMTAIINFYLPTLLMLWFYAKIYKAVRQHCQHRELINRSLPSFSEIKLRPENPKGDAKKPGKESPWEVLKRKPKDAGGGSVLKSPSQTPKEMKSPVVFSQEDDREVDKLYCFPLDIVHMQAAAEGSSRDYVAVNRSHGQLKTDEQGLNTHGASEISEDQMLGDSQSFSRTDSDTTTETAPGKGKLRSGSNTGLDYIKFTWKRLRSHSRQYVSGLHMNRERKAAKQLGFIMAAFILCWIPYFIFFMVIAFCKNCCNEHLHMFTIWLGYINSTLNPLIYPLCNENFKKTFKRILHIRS
The target of test [5] is T1, Adrenergic receptor alpha-2 (Homo sapiens, UniProt P08913+P18825+P18089).
T1 sequence (P08913 whole entry): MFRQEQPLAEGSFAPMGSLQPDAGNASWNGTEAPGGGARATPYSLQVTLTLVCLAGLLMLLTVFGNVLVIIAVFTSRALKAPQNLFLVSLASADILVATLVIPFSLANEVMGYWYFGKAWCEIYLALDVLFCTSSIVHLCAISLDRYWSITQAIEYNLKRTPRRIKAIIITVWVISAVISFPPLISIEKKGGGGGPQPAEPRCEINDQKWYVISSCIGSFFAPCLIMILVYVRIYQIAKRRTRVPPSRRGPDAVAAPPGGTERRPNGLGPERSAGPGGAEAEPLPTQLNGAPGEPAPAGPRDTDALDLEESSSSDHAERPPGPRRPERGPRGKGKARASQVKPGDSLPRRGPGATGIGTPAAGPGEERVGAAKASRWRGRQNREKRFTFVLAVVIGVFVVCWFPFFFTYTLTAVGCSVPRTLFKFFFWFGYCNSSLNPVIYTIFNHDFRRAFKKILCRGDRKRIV
T1 sequence (P18825 whole entry): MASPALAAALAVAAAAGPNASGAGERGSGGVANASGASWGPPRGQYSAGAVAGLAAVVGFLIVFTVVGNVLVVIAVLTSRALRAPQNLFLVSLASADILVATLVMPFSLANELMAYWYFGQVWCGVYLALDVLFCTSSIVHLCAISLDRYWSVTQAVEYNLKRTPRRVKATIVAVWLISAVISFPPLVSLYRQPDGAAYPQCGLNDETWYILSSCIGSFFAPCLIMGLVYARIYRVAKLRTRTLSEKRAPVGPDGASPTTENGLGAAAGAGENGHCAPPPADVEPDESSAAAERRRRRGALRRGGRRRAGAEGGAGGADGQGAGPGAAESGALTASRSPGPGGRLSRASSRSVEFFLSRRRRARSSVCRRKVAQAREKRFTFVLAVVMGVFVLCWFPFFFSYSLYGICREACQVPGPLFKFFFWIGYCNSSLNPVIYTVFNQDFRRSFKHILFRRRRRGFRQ
T1 sequence (P18089 whole entry): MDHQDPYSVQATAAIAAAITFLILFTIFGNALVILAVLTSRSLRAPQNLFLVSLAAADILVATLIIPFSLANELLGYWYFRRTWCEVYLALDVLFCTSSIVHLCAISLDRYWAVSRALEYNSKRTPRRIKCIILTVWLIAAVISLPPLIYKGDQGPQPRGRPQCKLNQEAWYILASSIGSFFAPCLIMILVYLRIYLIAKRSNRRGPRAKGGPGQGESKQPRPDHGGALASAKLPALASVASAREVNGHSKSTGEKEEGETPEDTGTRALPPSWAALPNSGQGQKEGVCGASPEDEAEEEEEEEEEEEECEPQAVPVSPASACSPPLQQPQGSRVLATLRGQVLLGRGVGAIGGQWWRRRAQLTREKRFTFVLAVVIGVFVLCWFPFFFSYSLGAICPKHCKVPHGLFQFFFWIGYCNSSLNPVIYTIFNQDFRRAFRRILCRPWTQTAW
As to the kind of experiment: Binding affinity to alpha2 receptor (unknown origin).

Test [6] deals with Kappa-type opioid receptor (Homo sapiens, UniProt P41145). Kind of test: Binding affinity to Kappa opioid receptor (unknown origin).
Sequence of Kappa-type opioid receptor (P41145 whole entry): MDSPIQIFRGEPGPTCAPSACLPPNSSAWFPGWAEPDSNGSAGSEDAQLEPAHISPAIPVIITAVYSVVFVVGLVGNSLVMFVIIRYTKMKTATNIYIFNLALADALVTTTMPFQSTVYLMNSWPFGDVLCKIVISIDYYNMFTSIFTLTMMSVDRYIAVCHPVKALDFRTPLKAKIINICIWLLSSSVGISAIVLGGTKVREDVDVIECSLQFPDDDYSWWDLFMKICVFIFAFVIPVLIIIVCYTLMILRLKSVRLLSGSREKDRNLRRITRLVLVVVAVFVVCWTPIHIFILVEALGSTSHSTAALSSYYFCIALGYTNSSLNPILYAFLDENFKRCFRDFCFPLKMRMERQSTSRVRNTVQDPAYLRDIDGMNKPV

For orientation: Ki means a measure of affinity in units of concentration, obtained from inhibition or displacement. Higher therefore signals a looser hold on the target. As to `CCCCc1ccc2c(c1)sc(=O)n2CCN1CCCCC1`, the Ki was more than 1000 nM in test [1] and 3.7 nM in test [2].
For the molecule `CCC(=O)c1ccc2c(c1)sc(=O)n2CCCN1CCCCC1`, the Ki was 202 nM in test [1] and 2.3 nM in test [2]. The Ratio Ki in test [3] stood at 87.
As to `O=C(c1ccc2c(c1)sc(=O)n2CCN1CCCCC1)C1CC1`, the Ki in test [1] and in test [2] was more than 1000 nM each time.
In the case of `CCC(=O)c1ccc2c(c1)oc(=O)n2CCCN1CCCCC1`, the inhibition constant (Ki) in test [1] is 496 nM; in test [2] it was 8.5 nM. Moreover, in test [3], the Ratio Ki turned out to be 58.
As for `CCCc1ccc2c(c1)sc(=O)n2CCN1CCCCCC1`, the Ki in test [1] was more than 1000 nM; in test [4], 311 nM; in test [5], 205 nM; in test [2], 0.56 nM. In addition, the Ratio Ki in test [3] was more than 1000.
Take `CCCc1ccc2c(c1)sc(=O)n2CCCCN1CCCCC1`: the values for the Ki in test [1] and in test [2] were 13 nM and 2.9 nM, respectively. Further, the Ratio Ki in test [3] amounted to 4.5.
For `CCCc1ccc2c(c1)sc(=O)n2CCN1C[C@]2(C)CCC[C@]2(C)C1`, the Ki in test [1] was more than 1000 nM; in test [2] it was 1.4 nM.
Consider `CN(C[C@@H]1C[C@@]1(CO)c1ccccc1)C12CC3CC(CC(C3)C1)C2` (relative stereo), for which the values for the Ki in test [6] and in test [2] were 418 nM and 1.26 nM, respectively. For the same molecule, in test [3], the Ratio Ki was determined as 2.
With `CCCc1ccc2c(c1)sc(=O)n2CCCN1CCCCC1`, the Ki in test [1] was more than 1000 nM; in test [2], 1.2 nM. Further, the Ratio Ki in test [3] was more than 1000.
Regarding `CCCc1ccc2c(c1)sc(=O)n2CCN1CCCCC1`, the values for the Ki in test [1] and in test [2] were 18 nM and 0.6 nM, respectively. Also, in test [3], the Ratio Ki is 30.
Take `CCCc1ccc2c(c1)OCC(=O)N2CCN1CCCCC1`: the figures for the Ki in test [1] and in test [2] were more than 1000 nM and 28 nM, respectively.
